Measured values from article PMC10610379, “Epidrugs as Promising Tools to Eliminate Plasmodium falciparum Artemisinin-Resistant and Quiescent Parasites” (Pharmaceutics, 2023).
“And” between values parts separate entries of the source, which are not always exact repeats. Equal values may be shown once. Read-outs that look alike come from different tables or passages of the source.

What was measured:
[1] = tested on: Plasmodium falciparum F32-ART (artemisinin-resistant strain); assay: Standard chemosensitivity assay (SYBR Green I), F32-ART; assay type: cell-based; conditions: for IC50: read-out: Antiplasmodial Activity: IC50, F32-ART; for Selectivity Index CC50/IC50: ratio cytotoxicity (mammalian cell type of the CC50)/antiplasmodial activity on F32-ART
Procedure: (§1) They differ by eight mutations in seven genes (PF3D7_0110400, PF3D7_1343700, PF3D7_0213400, PF3D7_1115700, PF3D7_1302100, PF3D7_1459600, PF3D7_1464500) among them the M476I mutation on the kelch13 gene. F32-ART and F32-TEM strains have RSA^0–3 h values up to 12% and less than 0.1%, respectively. […] Both strains were cultured, in the same conditions, according to the Trager and Jensen protocol with modifications. Briefly, parasites were cultivated in RPMI-1640 medium (Biowest) at 2% hematocrit in human red blood cells and 5% human serum (EFS, French Blood Bank) under 5% CO2 in a humid atmosphere at 37 °C.
(§2) The antimalarial activities of the compounds were evaluated on both strains. […] Antimalarial activities were determined with the SYBR Green I method. Each drug concentration was tested in triplicate. The parasites were incubated with the drugs for 48 h. Plates were read on a BioTek FLX800 Microplate Fluorescence Reader (Bio-Tek instruments, Winooski, VT, USA) (λexcitation = 485 nm, λemission = 528 nm). Control parasite culture (i.e., RPMI with 0.5% DMSO) was referred to as 100% growth. IC50 and IC90 values were determined using GraphPad Prism version 7.05 (GraphPad Software, San Diego, CA, USA). Results were the mean of 3 independent experiments. When it is relevant, statistical significance between results obtained with both parasite strains was determined by a Mann–Whitney test using GraphPad Prism version 7.05.

[2] = tested on: Plasmodium falciparum F32-TEM (artemisinin-sensitive twin line); assay: Standard chemosensitivity assay (SYBR Green I), F32-TEM; assay type: cell-based; conditions: read-out: Antiplasmodial Activity: IC50, F32-TEM
Procedure: as §1, §2

MCF7 = conditions: cited from earlier work
H3K4me3 = assay: Immunoblotting, histone mark abundance in F32-ART parasites; assay type: cell-based, Plasmodium falciparum; conditions: 90nM
Procedure: (§3) Abundance of methylated and acetylated histone was determined in parasite cultures in different conditions: “not-treated”, “DHA 24 h”, “DHA 6 h/DHA 24 h” and “DHA 6 h/DHA + compound to be tested 24 h”. At the end of the treatments, parasite cultures were washed in RPMI-1640 and then twice in PBS 1× before red blood cell lysis with 0.075% saponin (Sigma-Aldrich) in PBS. Parasite ghosts were washed 3 times in PBS before incubating the ghosts with E1A lysis buffer (50 mM Hepes pH 7.5; 250 mM NaCl; 5 mM EDTA; 0.1% Triton X-100, 1 mM DTT, 0.2 mM PMSF supplemented with complete Mini EDTA-free protease inhibitor cocktail (Roche®, Basel, Switzerland)) for 15 min. Ghosts were then sonicated for 3 × 15s ON/OFF cycles to shear parasite membranes. Debris were pelleted by centrifuging for 15 min at 13,800× g and 4 °C, and supernatants (containing parasitic proteins) were then collected. Protein concentrations were determined using BCA assay (Bio-Rad, Hercules, CA, USA) according to the manufacturer’s instructions. For each sample, 10 µg of proteins were mixed with 4× sample buffer (10 mL 50% Glycerol, 5 mL 0.5 M Tris HCl pH 6.8, 4 mL 20% SDS, 0.02% Bromophenol blue for a total solution volume of 20 mL) and 100 mM DTT and then separated on 15% SDS-PAGE gels in Laemmli running buffer. Gels were then wet-transferred O/N at 20 V onto PVDF membranes. Membranes were blocked in TBST for 1 h at room temperature. Bottom parts were then probed with histone antibodies while upper parts were probed with PFALDOLASE antibody (Abcam, ab38905, Cambridge, UK) at 1:20,000 dilution. The following primary antibodies were used: anti-H3K4me1 (Abcam, ab8895); anti-H3K4me2 (Abcam, ab35356); anti-H3K9me2 (Abcam, ab1220); anti-H3K9me3 (Millipore, 07-442, Burlington, MA, USA); anti-tetra-acetyl H4 (Millipore, 06-866); anti-H4K8Ac (Millipore, 07-328); anti-H4K20me3 (Abcam, ab9053); anti-H3K4me3 (Diagenode) and anti-H3K9Ac (Millipore, 07-352) at 1:10,000. The following secondary antibodies were used: anti-rabbit IgG-Peroxidase produced in goat (Sigma-Aldrich) or anti-mouse IgG-Peroxidase (Sigma-Aldrich); at 1:20,000 dilutions. Blots were developed using ECL Prime Western Blotting (GE Healthcare, Chicago, IL, USA) and read on a Chemidoc touch imaging software. Densitometry analysis was performed by using ImageLab software from Bio-Rad. To determine if variations in histone abundances were statistically significant, immunoblotting experiments were performed on 3 biological replicates and each run was performed twice.

H3K4me1 = assay: as above; assay type: cell-based, Plasmodium falciparum; conditions: 90nM
Procedure: as §3

H4K20me3 = assay: as above; assay type: cell-based, Plasmodium falciparum; conditions: 90nM
Procedure: as §3

H3K4me2 = assay: as above; assay type: cell-based, Plasmodium falciparum; conditions: 90nM
Procedure: as §3

HFF = conditions: read-out: Cytotoxicity: CC50 (HFF), data from literature ref 48; cited from earlier work
[3] = tested on: ART-resistant parasites F32-ART at the quiescent stage; assay: Quiescent-stage Survival Assay (QSA), 48-h exposure; assay type: cell-based, Plasmodium falciparum
Procedure: The sensitivity of the ART-resistant parasites F32-ART at the quiescent stage towards the different molecules was determined using the QSA (Quiescent-stage Survival Assay), as previously described.
Epidrugs were tested at their IC90 values. In the present study, quiescence was induced using 3 µM of ART or 700 nM of DHA [28]. Thus, D-sorbitol synchronized ring-stage parasites at 3% parasitemia and 2% hematocrit (5 mL of culture per well in 6-well plates) were first exposed to 6 h of ART or DHA to induce quiescence and then to 48 h of the combination “ART or DHA + compound to be tested”. The combinations “ART 6 h/ART 48 h” or “DHA 6 h/DHA 48 h” were used as controls. The compounds were evaluated, in parallel, on proliferating parasites, i.e., without any pre-treatment. After drug exposure, parasite cultures were washed with 40 mL of RPMI-1640 medium and cultured in drug-free conditions supplemented with 10% human serum in new wells. The parasitemia for each condition was then microscopically monitored every 2 days. Culture media were renewed twice a week and 25 µL of fresh red blood cells were added once a week. Obtained data were used to perform Kaplan–Meier survival analyses considering censored data. The outcome was defined as the day when parasite cultures reached the initial parasitemia (3%) and data were considered as censored if no parasite recrudescence was observed during the 30-day experiment timeframe. When relevant, statistical significance between results obtained for the conditions “ART/ART” and “ART/ART + compound to be tested” or “DHA/DHA” and “DHA/DHA + compound to be tested” was determined by a Log Rank (Mantel Cox) test using GraphPad Prism version 7.05. For the best compounds targeting histones, in order to compare western blots data, modified QSAs were carried out by comparing “DHA 6 h/DHA 24 h” versus “DHA 6 h/DHA + compound to be tested 24 h”.

[4] = Plasmodium falciparum, F32, 48 h
[5] = 24 h, F32-ART ring stage proliferating, 3 replicates (Fig 3B)
[6] = DHA 6 h/DHA + BIX-01294 24 h, F32-ART DHA-treated parasites, 3 replicates (Fig 3F)

| SMILES | IC50 ([1]; Plasmodium falciparum, F32-ART, 48 h incubation, SYBR Green I, mean ± SEM of 3 experiments (* mean of 2)) [nM] | Selectivity Index CC50/IC50 [1] | IC50 ([2]; Plasmodium falciparum, F32-TEM, 48 h incubation, SYBR Green I, mean ± SEM of 3 experiments (* mean of 2)) [nM] | CC50 (MCF7; MCF7, data from literature ref 45, read-out: Cytotoxicity: CC50 (MCF7)) [nM] | IC50 ([1]; F32-ART, 48 h incubation, SYBR Green I, mean ± SEM of 3 experiments (* mean of 2)) [nM] | IC50 ([2]; F32-TEM, 48 h incubation, SYBR Green I, mean ± SEM of 3 experiments (* mean of 2)) [nM] | CC50 (MCF7; MCF7 cancer, data from literature ref 42, read-out: Cytotoxicity: CC50 (MCF7 cancer)) [nM] | IC50 [1, 4] [nM] | Fold change of H3K4me3 abundance, BIX-01294 vs DMSO (H3K4me3; [5]) | Fold change of H3K4me3 abundance, BIX-01294, quiescent stage (H3K4me3; [6]) | Fold change of H3K4me1 abundance, BIX-01294 vs DMSO (H3K4me1; [5]) | Fold change of H3K4me1 abundance, BIX-01294, quiescent stage (H3K4me1; [6]) | Fold change of H4K20me3 abundance, BIX-01294 vs DMSO (H4K20me3; [5]) | Fold change of H4K20me3 abundance, BIX-01294, quiescent stage (H4K20me3; [6]) | Fold change of H3K4me2 abundance, BIX-01294 vs DMSO (H3K4me2; [5]) | Fold change of H3K4me2 abundance, BIX-01294, quiescent stage (H3K4me2; [6]) | IC50 [2, 4] [nM] | CC50 (HFF) [nM] | Delay in parasite recrudescence time (difference between median recrudescence times), ART/ART + compound vs ART/ART ([3]; quiescence induced with ART 3 µM 6 h, then 48 h ART + compound at its IC90) [days] | Delay in recrudescence time, DHA/DHA + compound vs DHA/DHA ([3]; quiescence induced with DHA 700 nM 6 h, then 48 h DHA + compound at its IC90) |
| --- | --- | --- | --- | --- | --- | --- | --- | --- | --- | --- | --- | --- | --- | --- | --- | --- | --- | --- | --- | --- |
| COc1ccc(CN2CCc3ccc(C(=O)NO)cc32)cc1 [PCI 34051] | 8000 | >2.5 | 9000 | > 20000 | – | – | – | – | – | – | – | – | – | – | – | – | – | – | – | – |
| O=C(CCCCCCC(=O)N[c-]1cccc1)NO.[Fe+2].c1cc[cH-]c1 [JAHA] | – | – | – | – | 460 ± 30 | 690 ± 80 | 2400 | – | – | – | – | – | – | – | – | – | – | – | – | – |
| COc1cc2nc(N3CCCN(C)CC3)nc(NC3CCN(Cc4ccccc4)CC3)c2cc1OC [BIX-01294] | – | 110 | – | – | – | – | – | 56 ± 8 | significantly decreased level and 0.89 and 0.88 and 0.80 | did not induce a quantifiable change and 1.11 and 1.28 and 0.96 | significantly decreased level and 0.58 and 0.68 and 0.70 | did not induce a quantifiable change and 1.47 and 1.13 and 0.70 | significantly decreased level and 0.69 and 0.64 and 0.72 | did not induce a quantifiable change and 0.66 and 1.37 and 0.84 | significantly decreased level and 0.66 and 0.68 and 0.73 | did not induce a quantifiable change and 1.57 and 0.88 and 0.79 | 55 ± 14 | 6100 | 8.5 | slightly shorter delay |
